Legend:
CD8^+ T cells [1] = assay: In vitro screening and validation in HLA-A*02:01-expressing human PBMCs, CD8^+ T cell lines, IFNγ/TNF ICS; type: cell-based; settings: for CD8^+ T cell response hierarchy of individual peptides: HLA-A*0201^+ donors, dissection of pools into individual peptides; for CD8^+ T cell response, median / donors with response: T cell lines towards individual peptides, n=6
Description: As a next step, the IBV-specific CD8^+ T cell responses towards the 67 LC/MS-identified IBV-peptides in HLA-A*02:01-expressing individuals were dissected. CD8^+ T cell lines specific for each of the 6 peptide pools were established, and then re-stimulated cells with the cognate pool in an IFNγ/TNF ICS assay (FIG. 2f).
To validate these responses independently of the peptide pools, CD8^+ T cell lines were established towards individual immunogenic peptides (FIG. 2i). […] Thus, these thorough in vivo and in vitro analyses identified 5 novel peptides recognized by CD8^+ T cells in complex with the HLA-A*02:01 molecule, with BHA543-551 being immunodominant amongst the peptides tested, in both mice and humans.
Peripheral blood mononuclear cells (PBMC) from healthy A2:01+ donors were cultured in the presence of antigens (10 μM peptide) for 10 days in the presence of IL-2 (10 U/ml). On day 10 PBMCs were stimulated with peptides (1 μM) for 5 hours in the presence of BFA. Cells were surface stained for CD3 and CD8 and intracellularly stained for IFNγ and TNF using the BD cytofix/cytoperm kit according to the manufacturer's instructions (BD Biosciences).
Any pools with positive ICS responses were then dissected to their individual peptides.

CD8^+ T cells [2] = system: CD8^+ T cells; set-up: species or system HHD-A2 mice; settings: mouse, in vivo
tetramer^+ CD8^+ T cells = assay: Tetramer staining of IAV- or IBV-specific CD8^+ T cell lines established in vitro from healthy adult PBMC; type: cell-based, human; settings: IBV-specific T cell lines, n=11
Description: Conversely, the universal A2/PB1413 epitope within the IBV-specific T cell lines was immunodominant (0.3%; detected in 8/11 donors) over the IBV-specific A2/BHA543 (0.11%; detected in 10/11 donors) and A2/BNS1266 epitopes (0.01%) (FIG. 4c).

CD8^+ T cells [3] = assay: Recall responses in HHD-A2 mice primed with B/Malaysia and challenged with B/Phuket; type: in vivo; settings: spleen d8 after B/Phuket challenge; not statistically significant
Description: To further verify the immunogenicity of these epitopes in recall responses, HHD-A2 mice were primed i.n. with B/Malaysia, infected with the heterologous strain B/Phuket 6 weeks later and then assessed CD8^+ T cells against the main epitopes A2/BHA543-551 and A2/BNS1266-274 in the spleen on d8 after challenge.

CD8^+ T cells [4] = system: CD8^+ T cells; set-up: species or system A24 mice; settings: mouse
CD8+ T cells = system: CD8+ T cells; set-up: species or system transgenic HLA-A24 mice; settings: mouse, in vivo
[5] = system: memory CD8^+ T cells within PBMCs; type: cell-based, human
CD8+ T Lymphocytes = type: cell-based, human

Question: With “SLNDDGLDNHTILL (Influenza B virus) [HA538-551]” as the sequence, how does the “CD8^+ T cell response hierarchy of individual peptides” value (shortened to “CD8^+ T cell response hierarchy”) (CD8^+ T cells [1]) read?
Answer: Subdominant responses

Question: And the “CD8+ T cell responses (IFNγ and TNF production)” value (CD8^+ T cells [2])?
Answer: detected

Question: How did the “tetramer^+ of CD8^+ T cells, median” value (tetramer^+ CD8^+ T cells) turn out when “SQFGQEHRL (Influenza B virus) [NS1266-274]” was run?
Answer: 0.01%

Question: What about the “number of secondary IFNγ^+TNF^+ CD8^+ T cells in the spleen versus primary infection” value (CD8^+ T cells [3]) of the same sequence?
Answer: ~27 fold

Question: And the “ICS responses in healthy A2:01+ donors” value (CD8^+ T cells [1]; 10 days culture with 10 μM peptide and IL-2, re-stimulation 1 μM)?
Answer: detected across multiple donors

Question: What about the “CD8^+ T cell response hierarchy” value (CD8^+ T cells [1]) of the same sequence?
Answer: Subdominant responses

Question: What about the “CD8^+ T cell response, median” value (CD8^+ T cells [1]) of the same sequence?
Answer: 0.035 % of CD8^+ T cells

Question: And the donors with response (CD8^+ T cells [1])?
Answer: single donor

Question: What about the “CD8+ T cell responses (IFNγ and TNF production)” value (CD8^+ T cells [2]) of the same sequence?
Answer: CD8+ T cell responses were targeted

Question: What about the “CD8^+ T cell response, mean” value (CD8^+ T cells [2]) of the same sequence?
Answer: 1.8 % of CD8^+ T cells

Question: What about the “CD8^+ T cell responses at the site of infection” value (CD8^+ T cells [2]) of the same sequence?
Answer: targeted

Question: Which “in vivo CD8^+ T cell responses” value (CD8^+ T cells [4]) does the source give for “SYINRTGTFEF (Influenza A virus) [PB1482-492]” here?
Answer: targeted

Question: With “SYLIRALTL (Influenza A virus) [PB1216-224]” as the sequence, how does the “in vivo CD8^+ T cell responses” value (CD8^+ T cells [4]) read?
Answer: targeted

Question: How did the “immunogenicity (induction of IFNγ production in CD8+ T cells after peptide re-stimulation)” value (shortened to “immunogenicity”) (CD8+ T cells) turn out when “TYHSYANNI (Influenza B virus) [NA213-221]” was run?
Answer: immunogenic

Question: For “TYQWIIRNW (Influenza A virus) [PB2549-557]”, which “in vivo CD8^+ T cell responses” value (CD8^+ T cells [4]) is on record?
Answer: targeted

Question: With “TYQWVLKNL (Influenza B virus) [PB2550-558]” as the sequence, how does the “immunogenicity” value (CD8+ T cells) read?
Answer: immunogenic

Question: For “VLSQFGQEHRL (Influenza B virus) [NS1264-274]”, which “CD8^+ T cell response hierarchy” value (CD8^+ T cells [1]) is on record?
Answer: Subdominant responses

Question: And the “CD8^+ T cell response, median” value (CD8^+ T cells [1])?
Answer: 0.025 % of CD8^+ T cells

Question: And the donors with response (CD8^+ T cells [1])?
Answer: single donor

Question: What about the “CD8+ T cell responses (IFNγ and TNF production)” value (CD8^+ T cells [2]) of the same sequence?
Answer: detected

Question: What about the “CD8^+ T cell responses at the site of infection” value (CD8^+ T cells [2]) of the same sequence?
Answer: targeted

Question: With “VSDGGPNLY (Influenza A virus) [PB1591-599]” as the sequence, how does the “memory CD8^+ T cell responses (IFN-γ production after peptide re-stimulation)” value [5] read?
Answer: robust memory CD8^+ T cell responses

Question: “YFSPIRVTF (Influenza B virus) [NP165-173]” was tested. Which “immunogenicity” value (CD8+ T cells) did it give?
Answer: immunogenic

Question: How did the “CD8^+ T cell response hierarchy” value (CD8^+ T cells [1]) turn out when “YLNPGNYSM (Influenza B virus) [M1132-140]” was run?
Answer: Subdominant responses

Question: And the donors with response (CD8^+ T cells [1])?
Answer: single donor

Question: With “YYSTAASSL (Influenza B virus) [HA552-560]” as the sequence, how does the “CD8+ T cell responses (IFNγ) after single peptide re-stimulation” value (CD8+ T Lymphocytes) read?
Answer: immunogenic response

Reference: US11517617B2, “Methods and compositions for preventing influenza infection” (THE UNIVERSITY OF MELBOURNE, priority 2017, dated 2022)
